The nature of data set [1]: Microsomal stability assay, rat liver microsome. It is filed as in vitro ADME. Particulars: liver microsomes, pH 7.4, 0.2 mg/mL, 1 μM compound, 37° C., read-out: Clint RLM. The method, then: (§1) Incubation mixture contained 0.2 mg/mL microsomes, 1 mmol NADPH, and test compound at 1 μM in 100 mmol potassium phosphate buffer at pH 7.4. The mixtures were incubated at 37° C. for 5, 15, and 30 minutes. Aliquots of the mixtures were taken at 0, 5, 15 and 30 minutes and quenched with chilled Acetonitrile:Methanol (50:50) containing internal standard. Following completion of incubation, samples were centrifuged at 4,000 rpm at 4° C. The supernatant was analyzed by LC-MS/MS and half-life, as well as intrinsic clearance (Clint), were calculated.
Background: Microsomes from liver hold many membrane-bound enzymes, among them those of drug oxidation.

The target in data set [2] is CHK-1 kinase (Homo sapiens (Human), UniProt O14757). Description: CHK-1 % inhibition kinase assay (TR-FRET). The data set is classed as biochemical. To be noted: ATP 15 μM; for inhibition at 0.03 µM / inhibition at 0.3 µM: CHK1 enzyme; for inhibition at 0.03 µM: compound 30 nM; for inhibition at 0.3 µM: compound 300 nM; for IC50: TR-FRET, read-out: CHK1 IC50. How it is done: Inhibition of CHK-1 kinase or percent inhibition at defined concentrations was determined by TR-FRET assay. Kinase reactions were performed in a 20 μL volume in low-volume 384-well plates (Cat #Corning 4511). The concentration of substrate Fluorescein-CREBtide was maintained at 0.2 μM in the assay, and the kinase reaction buffer consisted of 50 mM HEPES pH 7.5, 0.01% BRIJ-35, 10 mM MgCl2, 1 mM EGTA. Serially diluted compounds (3-fold) in DMSO (0.5% in final reaction) were incubated with cocktail of CHK-1 kinase (6 nM; Cat #PR3959B, ThermoFisher), Fluorescein-CREBtide (0.2 μM; Cat #PV3508, ThermoFisher), ATP (15 μM; Cat #A1852, Sigma), and kinase reaction buffer. After 1 hour kinase reactions at room temperature, 10 μL of Detection mix (8 nM LanthaScreen® Tb-CREB [pSer133] antibody, Cat #PV3542, ThermoFisher with 20 mM EDTA in TR-FRET Buffer, Cat #PV3574, ThermoFisher) was added, and the plate was read with a plate reader (Synergy™ NEO; Biotek) for TR-FRET.
Chain of CHK-1 kinase (O14757 whole entry): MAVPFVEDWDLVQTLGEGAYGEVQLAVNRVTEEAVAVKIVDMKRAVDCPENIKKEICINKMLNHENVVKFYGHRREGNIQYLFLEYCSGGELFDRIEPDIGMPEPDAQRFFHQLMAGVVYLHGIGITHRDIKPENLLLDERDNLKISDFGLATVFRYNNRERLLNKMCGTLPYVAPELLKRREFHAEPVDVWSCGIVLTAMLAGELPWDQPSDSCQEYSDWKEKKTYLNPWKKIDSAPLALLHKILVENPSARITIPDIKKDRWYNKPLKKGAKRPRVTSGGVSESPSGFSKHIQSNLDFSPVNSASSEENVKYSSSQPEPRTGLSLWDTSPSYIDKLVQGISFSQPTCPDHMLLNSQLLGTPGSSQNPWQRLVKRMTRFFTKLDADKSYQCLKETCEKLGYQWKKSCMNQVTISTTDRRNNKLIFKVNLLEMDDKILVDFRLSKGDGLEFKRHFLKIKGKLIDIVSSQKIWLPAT
The resulting TR-FRET emission ratio was used to calculate the percent inhibition by normalizing to the control using the following formula: […]
(Time-resolved FRET reads energy transfer from a long-lived donor to a nearby acceptor.)

Data set [3] in a line: Microsomal stability assay, mouse liver microsome. The data set is classed as in vitro ADME. To be noted: liver microsomes, pH 7.4, 0.2 mg/mL, 1 μM compound, 37° C., read-out: Clint MLM. How it is done: as §1
Data set [4] can be described thus: Microsomal stability assay, human liver microsome. The data set is classed as in vitro ADME. To be noted: liver microsomes, pH 7.4, 0.2 mg/mL, 1 μM compound, 37° C., read-out: Clint HLM. The method, then: as §1
The nature of data set [5]: Kinetic solubility assay (nephelometry). Particulars: PBS, 37 °C, pH 7.4, aqueous buffer, kinetic from dmso stock.
Method: Test articles were serially diluted in DMSO from concentration range of 10 mM to 0.078 mM in 96 well v-bottom dilution plate (#3363, Corning). 1 μL of test article from each well was transferred to 96 well flat bottom clear plates (#655101, Greiner) containing 99 μL of PBS at pH-7.4, which makes the test drug final concentration range from 100 μM to 0.78 μM. Samples were incubated for 1 hour at 37° C. followed by measurement of light scattering at 625 nm with a laser based micro plate Nephelometer (Nephlostar Plus, BMG Labtech). Solubility concentration (μM) was then calculated by segmental regression with Neplometer as Readout.

The record followed here is patent publication US20250346587A1, “NITROGEN-CONTAINING FIVE-MEMBERED HETEROCYCLIC DERIVATIVES AS CHECKPOINT KINASE 1 INHIBITOR AND USES THEREOF” (SPEROGENIX THERAPEUTICS LIMITED, priority 2022, published 2025).

Each structure is given as a SMILES string. In brackets after ≈: the same amount, converted by molar mass.

By inhibition is commonly meant the percentage by which the read-out fell short of the control. One may read the solubility (kinetic) as solubility judged after dilution from a stock solution rather than from solid. For orientation: IC50 means the point on the concentration scale where inhibition reaches its midpoint.

Regarding `N#Cc1cnc(Nc2cc(-c3ccccc3OCC3CCNC3)on2)cn1` (stereo not drawn) [Compound 1.23, 5-(5-(2-(pyrrolidin-3-ylmethoxy)phenyl)isoxazol-3-ylamino) pyrazine-2-carbonitrile], the microsomal CLint at 1 μM in data set [1] turned out to be 50 µL/min/mg; in data set [3], 52 µL/min/mg; in data set [4] it was 37 µL/min/mg. Further, the inhibition at 0.03 µM in data set [2] worked out at 82%. Further, the inhibition at 0.3 µM in data set [2] came out at 99%. The same compound gave a kinetic solubility at 1 h in data set [5] of 46.6 µM (≈ 16.9 µg/mL).
As to `N#Cc1cnc(Nc2cc(-c3cc4ccccc4cc3OCC3CCNCC3)[nH]n2)cn1` [Compound 2.1, 5-(5-(3-(piperidin-4-ylmethoxy)naphthalen-2-yl)-1H-pyrazol-3-ylamino) pyrazine-2-carbonitrile], the values for the microsomal CLint at 1 μM in data set [1], in data set [3] and in data set [4] were 36 µL/min/mg, 101 µL/min/mg and 25 µL/min/mg, respectively. The inhibition at 0.03 µM in data set [2] was determined as 27%. For the same compound, the inhibition at 0.3 µM in data set [2] amounted to 91%. Moreover, the IC50 in data set [2] stood at 2.46 nM. The kinetic solubility at 1 h in data set [5] came to 34.7 µM (≈ 14.8 µg/mL).
Turning to `N#Cc1cnc(Nc2cc(-c3cc4ccccc4cc3OCC3CNC3)[nH]n2)cn1` [Compound 2.2, 5-(5-(3-(azetidine-3-ylmethoxy)naphthalen-2-yl)-1H-pyrazol-3-ylamino) pyrazine-2-carbonitrile], the microsomal CLint at 1 μM in data set [1] came to 45 µL/min/mg. Besides, in data set [2], the inhibition at 0.03 µM was 80%, the inhibition at 0.3 µM was found to be 96% and the IC50 came out at 4.14 nM. Also, the microsomal CLint at 1 μM in data set [3] is 153 µL/min/mg. For the same compound, the microsomal CLint at 1 μM in data set [4] amounted to 21 µL/min/mg. The compound further showed a kinetic solubility at 1 h in data set [5] of 41.8 µM (≈ 16.6 µg/mL).
As for `N#Cc1cnc(Nc2cc(-c3cc4ccccc4cc3OCC3CNCCO3)[nH]n2)cn1` (stereo not drawn) [Compound 2.3, 5-(5-(3-(morpholin-2-ylmethoxy)naphthalen-2-yl)-1H-pyrazol-3-ylamino) pyrazine-2-carbonitrile], the microsomal CLint at 1 μM in data set [1] came to 39 µL/min/mg. For the same compound, in data set [2], the inhibition at 0.03 µM amounted to 41%, the inhibition at 0.3 µM was found to be 81% and the half-inhibitory concentration (IC50) was 8.15 nM. Further, the microsomal CLint at 1 μM in data set [3] was 85 µL/min/mg. In addition, the microsomal CLint at 1 μM in data set [4] was found to be 26 µL/min/mg. The solubility (kinetic) at 1 h in data set [5] was determined as 39.7 µM (≈ 17 µg/mL).
For `N#Cc1cnc(Nc2cc(-c3cc4ccccc4cc3OCC3CCNC3)[nH]n2)cn1` (stereo not drawn) [Compound 2.4, 5-(5-(3-(pyrrolidin-3-ylmethoxy)naphthalen-2-yl)-1H-pyrazol-3-ylamino) pyrazine-2-carbonitrile], the microsomal CLint at 1 μM in data set [1] is 94 µL/min/mg. In data set [2], the inhibition at 0.03 µM was determined as 70%, the inhibition at 0.3 µM came to 97% and the IC50 came to 2.34 nM. In addition, the microsomal CLint at 1 μM in data set [3] worked out at 142 µL/min/mg. The microsomal CLint at 1 μM in data set [4] is 33 µL/min/mg. Besides, the solubility (kinetic) at 1 h in data set [5] was 7.77 µM (≈ 3.2 µg/mL).
Regarding `N#Cc1cnc(Nc2cc(-c3cc4ccccc4cc3OCC3CCCNC3)[nH]n2)cn1` (stereo not drawn) [Compound 2.5, 5-(5-(3-(piperidin-3-ylmethoxy)naphthalen-2-yl)-1H-pyrazol-3-ylamino) pyrazine-2-carbonitrile], the microsomal CLint at 1 μM in data set [1] was determined as 124 µL/min/mg. In addition, in data set [2], the inhibition at 0.03 µM was found to be 72%, the inhibition at 0.3 µM was found to be 96% and the IC50 was 4.36 nM. In addition, the microsomal CLint at 1 μM in data set [3] is 111 µL/min/mg. Moreover, the microsomal CLint at 1 μM in data set [4] was found to be 14 µL/min/mg. This compound registered a kinetic solubility at 1 h in data set [5] of 41.6 µM (≈ 17.7 µg/mL).
Consider `N#Cc1cnc(Nc2cc(-c3cc4ccccc4cc3OCCN)[nH]n2)cn1` [Compound 2.6, 5-((5-(3-(2-aminoethoxy)naphthalen-2-yl)-1H-pyrazol-3-yl)amino) pyrazine-2-carbonitrile], for which the microsomal CLint at 1 μM in data set [1] came out at 58 µL/min/mg. Also, in data set [2], the inhibition at 0.03 µM turned out to be 61%, the inhibition at 0.3 µM was determined as 90% and the IC50 was determined as 15.7 nM. Moreover, in data set [3], the microsomal CLint at 1 μM was 153 µL/min/mg. Further, in data set [4], the microsomal CLint at 1 μM was found to be 3 µL/min/mg. In data set [5], this compound displayed a kinetic solubility at 1 h of 18.8 µM (≈ 6.98 µg/mL).
